Tested on: LP-1 cell line
Assay: Cell-based pERK ELISA, LP-1 cells
Details: LP-1 human multiple myeloma cells, FGF-1/Heparin stimulation; read-out: IC50 against the LP-1 cell line (pERK ELISA)
Experimental: Enzyme buffer A: 8 mM MOPS, pH 7.0, 0.2 mM EDTA, 10 mM MgAcetate Enzyme buffer B: 8 mM MOPS, pH 7.0, 0.2 mM EDTA, 2.5 mM MnCl2, 10 mM MgAcetate Enzyme buffer C: 8 mM Mops, pH 7.0, 0.2 mM EDTA, 10 mM MnCl2, 10 mM MgAcetate. Cell-Based pERK ELISA Method
LP-1 or JIM-1 multiple myeloma cells were seeded in 96 well plates at 1×10^6 cells/ml in 200 μl per well in serum free media. HUVEC cells were seeded at 2.5×10^5 cells/ml and allowed to recover for 24 h prior to transfer to serum free media. Cells were incubated for 16 h at 37° C. prior to the addition of a test compound for 30 minutes. Test compounds were administered at a 0.1% final DMSO concentration. Following this 30 minute incubation a FGF-1/Heparin (FGF-1 at 100 ng/ml final and Heparin at 100 ug/ml) mixture or VEGF^165 (100 ug/ml) was added to each of the wells for a further 5 minutes. The media was removed and 50 ul ERK ELISA lysis buffer (R and D Systems DuoSet ELISA for pERK and Total ERK #DYC-1940E, DYC-1018E) added. ELISA plates and standards were prepared according to the standard DuoSet protocols and the relative amounts of pERK to total ERK in each sample calculated according to the standard curve.
In particular, compounds of the invention were tested against the LP-1 cell line (DSMZ no.: ACC 41) derived from human multiple myeloma.

- IC50: < 1000 nM
Structure (SMILES): O=C(c1ccn2c(-c3cccc(Nc4nncs4)c3)cnc2c1)N1CCC1 [Example 2, Azetidin-1-yl-{3-[3-([1,3,4]thiadiazol-2-ylamino)-phenyl]-imidazo[1,2-a]pyridine-7-yl}-methanone]
